Like-named read-outs stand apart in the source and are kept apart here.
Experiments:
Type in all cases: cell-based, human
[1] = tested on: CRL2097; experiment: iPSC reprogramming efficiency with cholesterol (alkaline phosphatase assay); conditions: with OSKM 4 factors
Procedure: FIG. 6. The addition of cholesterol promote the iPSCs reprogramming efficiency. CRL2097 (passage 9) were seeded and infected with lentivirual vector (OSKM) with final concentration of cholesterol (0, 0.5×, 1×, 2×, 5×, 8×) which was diluted from 500× concentrated SyntheChol® NSO Supplement (S5442, Sigma). Alkaline phosphatase assay was performed to assay the reprogramming efficiency.
CRL2097 (passage 9) were seeded and infected with lentivirual vector (OSKM) with final concentration of cholesterol (0, 0.5×, 1×, 2×, 5×, 8×) which was diluted from 500× concentrated SyntheChol® NSO Supplement (S5442, Sigma). After 4 days viral transduction, cell were replated on matrigel-coated 6-well plates as cell number 27, 000 per well. 2 days later for cell attachment, cholesterol were supplied continually during reprogramming procedure. To better evaluate cholesterol effect to iPSC generation, serum-free defined E8 medium (containing 250 μM sodium butyrate, 50 μg/ml Vitamin C) was used for iPSC generation.
In addition, cholesterol can boost the reprogramming efficiency (total AP positive, 7.62-fold) with OSKM 4 factors.

[2] = tested on: PODXL knockdown hESCs; experiment: Annexin V/PI apoptosis in PODXL knockdown hESCs with cholesterol; conditions: PODXL knockdown for six days
Procedure: (§1) FIGS. 5A-5B. Cholesterol addition rescue hESC renewal in PODXL knockdown cells. […] Quantification of Annexin V/PI-positive cells was executed in triplicates (bottom left panel). P-values were calculated by performing one-way ANOVA against the shRFP hESCs (*p<0.05, **p<0.01, ***p<0.001). (Bottom right panel) Cholesterol restores the c-MYC/TERT expressions decrease by the expression of shPODXL. Western Blots were executed in PODXL knockdown HUES6 hESCs with the addition of cholesterol for 4 days.
hESCs were dissociated by accutase. The cells were stained according to manufactures' instructions (eBioscience, 88-8005-72). In brief, cells (5×10^5) were suspended at in 100 μl 1× binding buffer, and then stained with 2.5 μl of Annexin V-FITC. After reaction for 20 min at room temperature, the cells were incubated with 2.5 μl of PI solution for 10 min. Then the cells were diluted with PBS and analyzed with a flow cytometer.
To examine if cholesterol is the major downstream of PODXL, rescue experiment with cholesterol was performed.

[3] = tested on: c-MYC, TERT, HMGCR, PODXL, TRA-1-60; experiment: Western blot in PODXL knockdown hESCs with cholesterol; conditions: PODXL downregulated cells, cholesterol for 4 days
Procedure: as §1
Whole-cell protein extracts were purified from hPSCs or using RIPA lysis buffer (1% NP40, 50 mM Tris, pH 8.0, 150 mM NaCl, 2 mM EDTA) with the presence of protease inhibitor cocktail (Roche, 04693132001). Protein concentration was quantified by Bio-Rad Bradford Protein Assay. Equal amounts of protein were subjected to a 10% SDS-PAGE gel and blotted onto 0.22 um PVDF membrane (Millipore, ISEQ00010). Blots were blocked in 5% BSA/TBST at room temperature for 1 hr. The blots were incubated with the primary antibodies in 5% BSA/TBST at 4° C. overnight. […]

[4] = tested on: PODXL downregulated HUES6 hESCs; experiment: Cholesterol rescue in PODXL knockdown hESCs (Alamar blue, ALP activity); conditions: cholesterol addition for 4 days
Procedure: as §1
(§2) hESCs were cultured with Essential 8 medium (Thermo Fisher, A1517001) which containing 15% Alamar blue at 37° C. for 5 hours. The activities were calculated by measuring absorbance at 570 nm and 600 nm. To count the cell numbers with trypan blue assay, cells were treated with trypsin and the suspended cells were mixed 0.2% trypan blue (1:1) and counted with a hemocytometer.
Alkaline phosphatase (ALP) activities were calculated by adding the substrate of ALP, p-nitrophenyl phosphate (pNPP) (N7653, sigma), in the culture medium. The plate were incubated at 37° C. less than 5 minutes, then the absorbance was measured at 405 nm. For Alkaline phosphatase (ALP) staining, hPSCs were first washed with PBS and used 4% formaldehyde as a fixative. After fixing for 3 minutes, the cells were washed with 1×PBS and were stained by ALP staining reagent (Sigma). Then the cells were further washed by PBS. […]

[5] = tested on: H9; experiment: IC50 analyses of three inhibitors of cell growth, H9
Procedure: (§3) For feeder-free experiments, cells were cultured in a chemically defined medium (Essential 8 medium).
as §2
(§4) To check the functional roles of cholesterol on pluripotency, cholesterol inhibitor simvastatin, AY9944, Methyl-β-cyclodextrin (MBCD) were used to inhibit cholesterol biosynthesis (FIG. 4A). […] HMGCR is the rate-limiting enzyme of cholesterol biosynthesis. The side effects of statin are few and no cytotoxic side effects in human has been reported. AY9944 inhibits Δ7-dehydrocholesterol reductase (DHCR7), and decrease levels of cholesterol (Wassila Gaoua, 2000). Methyl-β-cyclodextrin (MBCD) directly deprived cellular cholesterol (Mahammad and Parmryd, 2015) (FIG. 4A). […] Next, we would like to know whether PSCs are more rely on cholesterol pathway. Thus, we compared the sensitivities of three cholesterol inhibitors in PSCs and three somatic fibroblast cells. […]

[6] = tested on: PODXL overexpressing hESCs; experiment: Inhibitor treatment of PODXL overexpressing hESCs (Alamar blue, ALP activity); conditions: PODXL overexpressed one day, then inhibitor treatment for 3 days
Procedure: as §2

[7] = tested on: hBMSC; experiment: IC50 analyses of three inhibitors of cell growth, hBMSC; conditions: for hPSCs more sensitive than human bone marrow mesenchymal stem cells (hBMMSCs): hBMMSCs vs hPSCs; for IC50: hBMSC, inhibitor treatments for 3 days
Procedure: (§5) Human BMMSCs (Lonza) were cultured in MSC NutriStem XF Medium (Defined, xeno-free, serum-free medium) and grown on Corning CellBIND Surface plates with inhibitor treatments for 3 days. Human neural stem cells (NSCs) were differentiated from H9 hESCs with Gibco PSC Neural Induction Medium (serum-free medium) for 7 days. And the NSCs were replated on matrigel-coated plate and supplied with each inhibitors for 3 days.
(§6) To check the functional roles of cholesterol on pluripotency, cholesterol inhibitor simvastatin, AY9944, Methyl-β-cyclodextrin (MBCD) were used to inhibit cholesterol biosynthesis (FIG. 4A). […] HMGCR is the rate-limiting enzyme of cholesterol biosynthesis. The side effects of statin are few and no cytotoxic side effects in human has been reported. AY9944 inhibits Δ7-dehydrocholesterol reductase (DHCR7), and decrease levels of cholesterol (Wassila Gaoua, 2000). Methyl-β-cyclodextrin (MBCD) directly deprived cellular cholesterol (Mahammad and Parmryd, 2015) (FIG. 4A). […] Next, we would like to know whether PSCs are more rely on cholesterol pathway. Thus, we compared the sensitivities of three cholesterol inhibitors in PSCs and three somatic fibroblast cells. Primary human foreskin fibroblasts (CRL-2097), a human foreskin fibroblast cell line (BJ-5Ta), and a fetal lung fibroblast cell line (IMR-90) were used for comparison.

[8] = tested on: BJ-5Ta; experiment: IC50 analyses of three inhibitors of cell growth, BJ-5Ta
Description: as §6

[9] = tested on: HUES6; experiment: IC50 analyses of three inhibitors of cell growth, HUES6
Procedure: as §3, §2, §4

[10] = tested on: hNSC; experiment: IC50 analyses of three inhibitors of cell growth, hNSC; conditions: for IC50: hNSC, inhibitors for 3 days; for hPSCs more sensitive than human neural stem cells (hNSCs): hNSCs vs hPSCs
Procedure: as §5, §6

[11] = tested on: IMR-90; experiment: IC50 analyses of three inhibitors of cell growth, IMR-90
Description: as §6

[12] = tested on: HUES6 hESCs; experiment: Alkaline phosphatase activity after cholesterol inhibitor treatment; conditions: treatment for 3 days
Description: as §6

[13] = tested on: CRL-2097; experiment: IC50 analyses of three inhibitors of cell growth, CRL-2097; conditions: for IC50 higher in primary fibroblasts than HUES6: primary fibroblasts vs HUES6
Description: as §6

CC(C)CCC[C@@H](C)[C@H]1CC[C@H]2[C@@H]3CC=C4C[C@@H](O)CC[C@]4(C)[C@H]3CC[C@]12C [cholesterol]
reprogramming efficiency (total AP positive) [1]: 7.62 fold | apoptosis of the hPSCs [2]: substantially restored | expression levels of c-MYC, TERT, HMGCR, PODXL, TRA-1-60 [3]: rescued | relative cell number loss from PODXL knockdown ([4]; Alamar blue): prevent | reduction in ALP activity from PODXL knockdown [4]: prevent

Methyl-β-cyclodextrin [MBCD]
IC50 [5]: 1130 µM | upregulation in self-renewal (cell growth and ALP activity) by PODXL overexpression [6]: inhibited | hPSCs more sensitive than human bone marrow mesenchymal stem cells (hBMMSCs) [7]: 2.65 fold | IC50 [7]: 3290 µM | IC50 ([8]; no serum): 2340 µM | IC50 ([8]; serum): 3770 µM | IC50 [9]: 1350 µM | IC50 [10]: 3020 µM | hPSCs more sensitive than human neural stem cells (hNSCs) [10]: 2.44 fold | IC50 ([11]; IMR-90, no serum): 2640 µM | IC50 ([11]; IMR-90, serum): 2810 µM | Alkaline phosphatase activities (stem cell marker expression) [12]: hampered | IC50 ([13]; CRL-2097, no serum): 2600 µM | IC50 ([13]; CRL-2097, serum): 3860 µM | IC50 higher in primary fibroblasts than HUES6 [13]: 2 fold

CCC(C)(C)C(=O)O[C@H]1C[C@@H](C)C=C2C=C[C@H](C)[C@H](CC[C@@H]3C[C@@H](O)CC(=O)O3)[C@H]21 [Simvastatin, (1S,3R,7S,8S,8aR)-1,2,3,7,8,8a-Hexahydro-3,7-dimethyl-8-[2-[(2R,4R)-tetrahydro-4-hydroxy-6-oxo-2H-pyran-2-yl]ethyl]-1-naphthalenyly-2,2-dimethyl butanoate]
IC50 ([5]; Homo sapiens): 0.02 µM | IC50 ([7]; Homo sapiens, 72 h): 8.97 µM | hPSCs more sensitive than human bone marrow mesenchymal stem cells (hBMMSCs) [7]: 163 fold | IC50 ([8]; Homo sapiens, no serum): 1.96 µM | IC50 ([8]; Homo sapiens, serum): 4.36 µM | IC50 ([9]; Homo sapiens): 0.16 µM | IC50 ([10]; Homo sapiens, 72 h): 31.2 µM | hPSCs more sensitive than human neural stem cells (hNSCs) [10]: 568 fold | IC50 ([11]; Homo sapiens, IMR-90, IMR-90, no serum): 5.46 µM | IC50 ([11]; Homo sapiens, IMR-90, IMR-90, serum): 4.13 µM | IC50 ([13]; Homo sapiens, CRL-2097, no serum): 4.35 µM | IC50 ([13]; Homo sapiens, CRL-2097, serum): 5.44 µM | IC50 higher in primary fibroblasts than HUES6 [13]: 52 fold
